Assay results published in PubChem BioAssay AID1918993 (Molecular Pharmacology Branch, DTP, NCI, 2023).
pIC50: −log10 of the molar value.

Test system: 233499-124-R-J3-PDC complex spheroid growth
Experiment: Anticancer human tumor 233499-124-R-J3-PDC patient-derived colon adenocarcinoma cell line growth inhibition [AhR]
Conditions: for pIC50: curve of first compound; for viability, T/C: stronger effect = lower value
In short: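 Spheroids combined tumor cells with HUVEC endothelial cells and human MSCs as stroma. AhR antagonists were paired with standard or investigational drugs, each dosed in half-log steps down from near clinical Cmax, or from 10 microM where Cmax was unknown.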

[1] = second compound 0.1 µM, first compound 0.0316 µM
[2] = second compound 0.1 µM, first compound 0.1 µM
[3] = second compound 0.1 µM, first compound 0.316 µM
[4] = second compound 0.1 µM, first compound 1 µM
[5] = second compound 0.1 µM, first compound 3.16 µM
[6] = second compound 0.1 µM, first compound 10 µM
[7] = second compound 0.316 µM, first compound 0.0316 µM
[8] = second compound 0.316 µM, first compound 0.1 µM
[9] = second compound 0.316 µM, first compound 0.316 µM
[10] = second compound 0.316 µM, first compound 1 µM
[11] = second compound 0.316 µM, first compound 3.16 µM
[12] = second compound 0.316 µM, first compound 10 µM
[13] = second compound 1 µM, first compound 0.0316 µM
[14] = second compound 1 µM, first compound 0.1 µM
[15] = second compound 1 µM, first compound 0.316 µM
[16] = second compound 1 µM, first compound 1 µM
[17] = second compound 1 µM, first compound 3.16 µM
[18] = second compound 1 µM, first compound 10 µM
[19] = second compound 3.16 µM, first compound 0.0316 µM
[20] = second compound 3.16 µM, first compound 0.1 µM
[21] = second compound 3.16 µM, first compound 0.316 µM
[22] = second compound 3.16 µM, first compound 1 µM
[23] = second compound 3.16 µM, first compound 3.16 µM
[24] = second compound 3.16 µM, first compound 10 µM
[25] = second compound 10 µM, first compound 0.0316 µM
[26] = second compound 10 µM, first compound 0.1 µM
[27] = second compound 10 µM, first compound 0.316 µM
[28] = second compound 10 µM, first compound 1 µM
[29] = second compound 10 µM, first compound 3.16 µM
[30] = second compound 10 µM, first compound 10 µM
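Also: spheroids exposed to agents for seven days before reading.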

| pIC50 (second compound 0.1 µM) | pIC50 (second compound 0.316 µM) | pIC50 (second compound 1 µM) | pIC50 (second compound 3.16 µM) | pIC50 (second compound 10 µM) | SMILES | viability, T/C [1] [%] | viability, T/C [2] [%] | viability, T/C [3] [%] | viability, T/C [4] [%] | viability, T/C [5] [%] | viability, T/C [6] [%] | viability, T/C [7] [%] | viability, T/C [8] [%] | viability, T/C [9] [%] | viability, T/C [10] [%] | viability, T/C [11] [%] | viability, T/C [12] [%] | viability, T/C [13] [%] | viability, T/C [14] [%] | viability, T/C [15] [%] | other results |
| --- | --- | --- | --- | --- | --- | --- | --- | --- | --- | --- | --- | --- | --- | --- | --- | --- | --- | --- | --- | --- | --- |
| < 5.00 | 6.55 | < 5.00 | < 5.00 | < 5.00 | Nc1ccn(C2OC(CO)C(O)C2(F)F)c(=O)n1 (stereo not given) + Cc1ccccc1N=Nc1ccc(NC(=O)c2ccnn2C)c(C)c1 | 103 | 93.1 | 69.5 | 56.9 | 65.7 | 64.6 | 91.2 | 101 | 42.1 | 39.1 | 41 | 57 | 95.5 | 93.7 | 62.8 | viability, T/C [16]: 47.4%; viability, T/C [17]: 59.6%; viability, T/C [18]: 53.6%; viability, T/C [19]: 84.5%; viability, T/C [20]: 81.3%; viability, T/C [21]: 65.9%; viability, T/C [22]: 55.8%; viability, T/C [23]: 65.8%; viability, T/C [24]: 68.7%; viability, T/C [25]: 94%; viability, T/C [26]: 111%; viability, T/C [27]: 93.5%; viability, T/C [28]: 87.8%; viability, T/C [29]: 71.2%; viability, T/C [30]: 76.5% |
| 5.28 | 5.24 | 5.26 | 5.51 | > 7.50 | O=C(C=Cc1cccc(S(=O)(=O)Nc2ccccc2)c1)NO + Cc1cncc(-c2nc(NCCc3c[nH]c4ccccc34)c3ncn(C(C)C)c3n2)c1 | 103 | 96.8 | 111 | 122 | 82 | 9.95 | 84.6 | 98.7 | 94.4 | 105 | 107 | 5.83 | 84.6 | 97.7 | 88.8 | viability, T/C [16]: 103%; viability, T/C [17]: 95.5%; viability, T/C [18]: 1.53%; viability, T/C [19]: 78.6%; viability, T/C [20]: 78.2%; viability, T/C [21]: 80.8%; viability, T/C [22]: 93.2%; viability, T/C [23]: 49.4%; viability, T/C [24]: 3.18%; viability, T/C [25]: 7.06%; viability, T/C [26]: 6.48%; viability, T/C [27]: 7.01%; viability, T/C [28]: 2.38%; viability, T/C [29]: 1.78%; viability, T/C [30]: 0.38% |
| < 5.00 | < 5.00 | < 5.00 | < 5.00 | > 7.50 | COc1ccc([C@@H](O)c2cc(-c3ncnc4cc(N5CCOCC5)ccc34)c(F)cc2Cl)nn1 + Cc1cncc(-c2nc(NCCc3c[nH]c4ccccc34)c3ncn(C(C)C)c3n2)c1 | 87.6 | 82.5 | 84.5 | 90.5 | 70.3 | 64.1 | 95.3 | 77.3 | 79.8 | 64.5 | 70.4 | 67.7 | 75.7 | 73.3 | 65.7 | viability, T/C [16]: 66.4%; viability, T/C [17]: 60.8%; viability, T/C [18]: 67.5%; viability, T/C [19]: 74.2%; viability, T/C [20]: 72.7%; viability, T/C [21]: 68.1%; viability, T/C [22]: 69%; viability, T/C [23]: 61.4%; viability, T/C [24]: 71.7%; viability, T/C [25]: 1.87%; viability, T/C [26]: 1.89%; viability, T/C [27]: 4.9%; viability, T/C [28]: 2.28%; viability, T/C [29]: 1.45%; viability, T/C [30]: 4.49% |
